What follows are compounds tested against recombinant human baculovirus-expressed cMET (Homo sapiens (Human), UniProt P08581) (assay: c-MET kinase assay (HTRF KinEASE)). Settings: average of two or more determinations; read-out: c-MET IC50.
Format: biochemical
`Cc1c(Nc2cc(Oc3ccc(NC(=O)c4cccn(-c5ccc(F)cc5)c4=O)cc3F)c3ccnn3c2)cnn1C` [Example 82, 1-(4-Fluoro-phenyl)-2-oxo-1,2-dihydro-pyridine-3-carboxylic acid{4-[6-(1,5-dimethyl-1H-pyrazol-4-ylamino)-pyrazolo[1,5-a]pyridin-4-yloxy]-3-fluoro-phenyl}-amide] was tested, and the IC50 was < 10 nM.
In the case of `Cn1cnc(-c2cc(Oc3ccc(NC(=O)c4cn(CCO)c(=O)n(-c5ccc(F)cc5)c4=O)cc3F)c3ccnn3c2)c1` [Example 97, 3-(4-Fluoro-phenyl)-1-(2-hydroxy-ethyl)-2,4-dioxo-1,2,3,4-tetrahydro-pyrimidine-5-carboxylic acid{3-fluoro-4-[6-(1-methyl-1H-imidazol-4-yl)-pyrazolo[1,5-a]pyridin-4-yloxy]-phenyl}-amide], the IC50 is reported as < 10 nM.
Work on `O=C(Nc1ccc(F)cc1)C1(C(=O)Nc2ccc(Oc3cc(N4CCOCC4)cn4nccc34)c(F)c2)CC1` [Example 63, Cyclopropane-1,1-dicarboxylic acid[3-fluoro-4-(6-morpholin-4-yl-pyrazolo[1,5-a]pyridin-4-yloxy)-phenyl]-amide(4-fluoro-phenyl)-amide] yielded an IC50 of 10 to 100 nM.
For `CCn1nc(C(=O)Nc2ccc(Oc3cc(-c4cn(C)cn4)cn4nccc34)cn2)c(=O)n(-c2ccc(F)cc2)c1=O` [Example 130, 2-Ethyl-4-(4-fluoro-phenyl)-3,5-dioxo-2,3,4,5-tetrahydro-1,2,4-triazine-6-carboxylic acid{5-[6-(1-methyl-1H-imidazol-4-yl)-pyrazolo[1,5-a]pyridin-4-yloxy]-pyridin-2-yl}-amide], the IC50 was < 10 nM.
For `Cc1ccc(C(=O)Nc2ccc(Oc3cc(N4CCOCC4)cn4nccc34)c(F)c2)c(=O)n1-c1ccc(F)cc1` [Example 60, 1-(4-Fluoro-phenyl)-6-methyl-2-oxo-1,2-dihydro-pyridine-3-carboxylic acid [3-fluoro-4-(6-morpholin-4-yl-pyrazolo[1,5-a]pyridin-4-yloxy)-phenyl]-amide], the IC50 was < 10 nM.
`CCn1cc(C(=O)Nc2ccc(Oc3cc(-c4ncccn4)cn4nccc34)c(F)c2)c(=O)n(-c2ccc(F)cc2)c1=O` [Example 132, 1-Ethyl-3-(4-fluoro-phenyl)-2,4-dioxo-1,2,3,4-tetrahydro-pyrimidine-5-carboxylic acid [3-fluoro-4-(6-pyrimidin-2-yl-pyrazolo[1,5-a]pyridin-4-yloxy)-phenyl]-amide] gave an IC50 of 10 to 100 nM.
`CCn1cc(C(=O)Nc2ccc(Oc3cc(Nc4ncccn4)cn4nccc34)c(F)c2)c(=O)n(-c2ccc(F)cc2)c1=O` [Example 84, 1-Ethyl-3-(4-fluoro-phenyl)-2,4-dioxo-1,2,3,4-tetrahydro-pyrimidine-5-carboxylic acid{3-fluoro-4-[6-(pyrimidin-2-ylamino)-pyrazolo[1,5-a]pyridin-4-yloxy]-phenyl}-amide] gave an IC50 of 10 to 100 nM.
With `Cn1cnc(-c2cc(Oc3ccc(Nc4ncccn4)cc3F)c3ccnn3c2)c1` [Example 152, {3-Fluoro-4-[6-(1-methyl-1H-imidazol-4-yl)-pyrazolo[1,5-a]pyridin-4-yloxy]-phenyl}-pyrimidin-2-yl-amine] the IC50 was 1000 to 10000 nM.
In the case of `Cn1nccc1-c1cc(Oc2ccc(NC(=O)c3cccn(-c4ccc(F)cc4)c3=O)cc2F)c2ccnn2c1` [Example 41, 1-(4-Fluoro-phenyl)-2-oxo-1,2-dihydro-pyridine-3-carboxylic acid{3-fluoro-4-[6-(2-methyl-2H-pyrazol-3-yl)-pyrazolo[1,5-a]pyridine-4-yloxy]-phenyl}-amide], the IC50 is reported as < 10 nM.
Work on `CCn1cc(C(=O)Nc2ccc(Oc3cc(N4CCC(F)(F)C4)cn4nccc34)c(F)c2)c(=O)n(-c2ccc(F)cc2)c1=O` [Example 70, 1-Ethyl-3-(4-fluoro-phenyl)-2,4-dioxo-1,2,3,4-tetrahydro-pyrimidine-5-carboxylic acid{4-[6-(3,3-difluoro-pyrrolidin-1-yl)-pyrazolo[1,5-a]pyridin-4-yloxy]-3-fluoro-phenyl}-amide] yielded an IC50 of 10 to 100 nM.
`CCOc1ccn(-c2ccc(F)cc2)c(=O)c1C(=O)Nc1ccc(Oc2cccn3nccc23)c(F)c1` [Example 13, 4-Ethoxy-1-(4-fluoro-phenyl)-2-oxo-1,2-dihydro-pyridine-3-carboxylic acid [3-fluoro-4-(pyrazolo[1,5-a]pyridin-4-yloxy)-phenyl]-amide] was tested, and the IC50 was < 10 nM.
Compound `CC(C)n1cc(C(=O)Nc2ccc(Oc3cc(N4CCC(F)(F)CC4)cn4nccc34)c(F)c2)c(=O)n(-c2ccc(F)cc2)c1=O` [Example 69, 3-(4-Fluoro-phenyl)-1-isopropyl-2,4-dioxo-1,2,3,4-tetrahydro-pyrimidine-5-carboxylic acid{4-[6-(4,4-difluoro-piperidin-1-yl)-pyrazolo[1,5-a]pyridin-4-yloxy]-3-fluoro-phenyl}-amide] has an IC50 of 10 to 100 nM.
With `O=C(Nc1ccc(Oc2cccn3nccc23)cc1)c1cnn(-c2ccccc2)c1C(F)(F)F` [Example 19, 1-Phenyl-5-trifluoromethyl-1H-pyrazole-4-carboxylic acid [4-(pyrazolo[1,5-a]pyridin-4-yloxy)-phenyl]-amide] the IC50 was 1000 to 10000 nM.
With `CCCCCn1cc(C(=O)Nc2ccc(Oc3cc(-c4cn(C)cn4)cn4nccc34)c(F)c2)c(=O)n(-c2ccc(F)cc2)c1=O` [Example 123, 3-(4-Fluoro-phenyl)-2,4-dioxo-1-pentyl-1,2,3,4-tetrahydro-pyrimidine-5-carboxylic acid{3-fluoro-4-[6-(1-methyl-1H-imidazol-4-yl)-pyrazolo[1,5-a]pyridin-4-yloxy]-phenyl}-amide] the IC50 was < 10 nM.
With `O=C(Nc1ccc(Oc2cc(N3CCCC3)cn3nccc23)c(F)c1)c1cccn(-c2ccc(F)cc2)c1=O` [Example 75, 1-(4-Fluoro-phenyl)-2-oxo-1,2-dihydro-pyridine-3-carboxylic acid[3-fluoro-4-(6-pyrrolidin-1-yl-pyrazolo[1,5-a]pyridin-4-yloxy)-phenyl]-amide] the IC50 was < 10 nM.
With `CC(C)n1nc(C(=O)Nc2ccc(Oc3cc(-c4cn(C)cn4)cn4nccc34)cn2)c(=O)n(-c2ccc(F)cc2)c1=O` [Example 131, 4-(4-Fluoro-phenyl)-2-isopropyl-3,5-dioxo-2,3,4,5-tetrahydro-1,2,4-triazine-6-carboxylic acid{5-[6-(1-methyl-1H-imidazol-4-yl)-pyrazolo[1,5-a]pyridin-4-yloxy]-pyridin-2-yl}-amide] the IC50 was < 10 nM.
In the case of `CCn1cc(C(=O)Nc2ccc(Oc3cc(-c4cn(C)cn4)cn4nccc34)c(OCc3ccccc3)c2)c(=O)n(-c2ccc(F)cc2)c1=O` [Example 119], the IC50 is reported as 10 to 100 nM.
`CC(C)n1cc(C(=O)Nc2ccc(Oc3cc(-c4ncccn4)cn4nccc34)c(F)c2)c(=O)n(-c2ccc(F)cc2)c1=O` [Example 133, 3-(4-Fluoro-phenyl)-1-isopropyl-2,4-dioxo-1,2,3,4-tetrahydro-pyrimidine-5-carboxylic acid[3-fluoro-4-(6-pyrimidin-2-yl-pyrazolo[1,5-a]pyridin-4-yloxy)-phenyl]-amide] showed an IC50 of 10 to 100 nM.
For `Cn1cnc(-c2cc(Oc3ccc(NC(=O)C4(C(=O)Nc5ccc(F)cc5)CC4)cc3F)c3ccnn3c2)c1` [Example 108, Cyclopropane-1,1-dicarboxylic acid{3-fluoro-4-[6-(1-methyl-1H-imidazol-4-yl)-pyrazolo[1,5-a]pyridin-4-yloxy]-phenyl}-amide(4-fluoro-phenyl)-amide], the IC50 was < 10 nM.

Reference: patent publication US9914731B2, “Pyrazolo[1,5-a]pyridine derivatives and methods of their use” (Ignyta, Inc., priority 2013, dated 2018)
